This passage reports IC50 results from patent publication US11981658B2, “Substituted aminopyridine compounds as EGFR inhibitors” (YUHAN CORPORATION, priority 2021, dated 2024).

The structures appear in SMILES notation. Where two headings read alike, the source gives them in different places.

Assay [1] deals with EGFR wildtype (WT) (Homo sapiens, UniProt P00533). The assay is described as follows: Biochemical EGFR kinase inhibition assay (Lance Ultra TR-FRET), wildtype. The procedure, abridged:
(§1)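 In this biochemical assay, phosphorylation after a one-hour room-temperature reaction was detected with europium-labelled anti-phosphopeptide antibody at 2 nM final concentration.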

The target of assay [2] is EGFR Del19/T790M/C797S (Homo sapiens, UniProt P00533, C797S/DEL746-750/T790M). The assay is described as follows: Biochemical EGFR kinase inhibition assay (Lance Ultra TR-FRET), triple mutant del19/T790M/C797S. The procedure, abridged:
as §1
A general note: In TR-FRET formats the signal depends on donor and acceptor labels being close together.

Assay [3] has as its target EGFR Del19/C797S (Homo sapiens, UniProt P00533, C797S/DEL746-750). The assay is described as follows: Biochemical EGFR kinase inhibition assay (Lance Ultra TR-FRET), double mutant del19/C797S. The procedure, abridged: as §1
Assay [4] concerns the target EGFR L858R/C797S (Homo sapiens, UniProt P00533, C797S/L858R). Nature of the assay: Biochemical EGFR kinase inhibition assay (Lance Ultra TR-FRET), double mutant L858R/C797S. The procedure, abridged:
as §1

The target in assay [5] is EGFR L858R/T790M/C797S (Homo sapiens, UniProt P00533, C797S/L858R/T790M). The assay is described as follows: Biochemical EGFR kinase inhibition assay (Lance Ultra TR-FRET), triple mutant L858R/T790M/C797S. The method in brief: as §1
Sequence of EGFR L858R/T790M/C797S (P00533 25-1210 T790M/C797S/L858R): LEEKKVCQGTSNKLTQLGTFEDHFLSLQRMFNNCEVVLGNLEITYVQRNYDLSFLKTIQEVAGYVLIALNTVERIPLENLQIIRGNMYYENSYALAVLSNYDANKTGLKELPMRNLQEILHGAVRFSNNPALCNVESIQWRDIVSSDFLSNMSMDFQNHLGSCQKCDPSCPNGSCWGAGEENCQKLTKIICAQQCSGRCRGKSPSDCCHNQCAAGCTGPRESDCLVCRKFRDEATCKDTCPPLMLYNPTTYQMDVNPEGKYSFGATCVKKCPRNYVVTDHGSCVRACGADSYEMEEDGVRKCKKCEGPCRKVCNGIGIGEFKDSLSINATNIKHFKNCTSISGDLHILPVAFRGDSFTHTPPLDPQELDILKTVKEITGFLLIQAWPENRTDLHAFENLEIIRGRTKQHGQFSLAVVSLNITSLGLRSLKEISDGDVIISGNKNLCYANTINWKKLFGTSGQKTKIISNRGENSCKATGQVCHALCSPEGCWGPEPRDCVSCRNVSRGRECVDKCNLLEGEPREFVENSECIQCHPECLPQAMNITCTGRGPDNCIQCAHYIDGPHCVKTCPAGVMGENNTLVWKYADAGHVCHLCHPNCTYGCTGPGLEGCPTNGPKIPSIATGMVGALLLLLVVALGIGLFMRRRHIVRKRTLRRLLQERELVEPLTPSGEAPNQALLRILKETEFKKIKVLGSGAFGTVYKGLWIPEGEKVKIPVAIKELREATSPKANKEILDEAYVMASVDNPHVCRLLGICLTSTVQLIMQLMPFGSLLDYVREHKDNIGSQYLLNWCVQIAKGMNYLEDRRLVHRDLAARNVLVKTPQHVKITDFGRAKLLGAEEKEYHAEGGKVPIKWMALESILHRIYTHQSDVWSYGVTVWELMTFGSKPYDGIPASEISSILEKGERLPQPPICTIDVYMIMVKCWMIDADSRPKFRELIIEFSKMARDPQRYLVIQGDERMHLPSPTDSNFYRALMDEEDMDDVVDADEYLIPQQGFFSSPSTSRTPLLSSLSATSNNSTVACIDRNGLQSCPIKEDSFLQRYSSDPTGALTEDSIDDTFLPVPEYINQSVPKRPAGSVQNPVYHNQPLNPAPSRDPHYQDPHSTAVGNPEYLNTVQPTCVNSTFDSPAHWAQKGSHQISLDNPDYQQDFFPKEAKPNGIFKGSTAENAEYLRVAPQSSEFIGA
The mark [6] stands for this setting: IC50 Del19/T790M/C797S (nM), 100 μM ATP.
The mark [7] stands for this setting: IC50 Del19/C797S (nM), 100 μM ATP.
Setting [8] is: IC50 L858R/C797S (nM), 100 μM ATP.
Setting [9] is: IC50 L858R/T790M/C797S (nM), 100 μM ATP.
[10] abbreviates: Km ATP, read-out: IC50 WT (nM), Km ATP.
Where [11] appears, read: Km ATP, read-out: IC50 Del19/T790M/C797S (nM), Km ATP.
Setting [12] is: Km ATP, read-out: IC50 Del19/C797S (nM), Km ATP.
Where [13] appears, read: Km ATP, read-out: IC50 L858R/C797S (nM), Km ATP.
[14] abbreviates: Km ATP, read-out: IC50 L858R/T790M/C797S (nM), Km ATP.
The mark [15] stands for this setting: Km ATP, read-out: IC50 WT (nM) Km ATP.
Where [16] appears, read: Km ATP, read-out: IC50 Del19/T790M/C797S (nM) Km ATP.
Where [17] appears, read: Km ATP, read-out: IC50 Del19/C797S (nM) Km ATP.
[18] abbreviates: Km ATP, read-out: IC50 L858R/C797S (nM) Km ATP.
Where [19] appears, read: Km ATP, read-out: IC50 L858R/T790M/C797S (nM) Km ATP.
Setting [20] is: ATP at Km, read-out: IC50 WT (nM), Km ATP.
The mark [21] stands for this setting: ATP at Km, read-out: IC50 Del19/T790M/C797S (nM), Km ATP.
The mark [22] stands for this setting: ATP at Km, read-out: IC50 Del19/C797S (nM), Km ATP.
The mark [23] stands for this setting: ATP at Km, read-out: IC50 L858R/C797S (nM), Km ATP.
Where [24] appears, read: ATP at Km, read-out: IC50 L858R/T790M/C797S (nM), Km ATP.

Sequence of EGFR Del19/T790M/C797S (P00533 with tags, fused parts or gaps DEL746-750/T790M/C797S): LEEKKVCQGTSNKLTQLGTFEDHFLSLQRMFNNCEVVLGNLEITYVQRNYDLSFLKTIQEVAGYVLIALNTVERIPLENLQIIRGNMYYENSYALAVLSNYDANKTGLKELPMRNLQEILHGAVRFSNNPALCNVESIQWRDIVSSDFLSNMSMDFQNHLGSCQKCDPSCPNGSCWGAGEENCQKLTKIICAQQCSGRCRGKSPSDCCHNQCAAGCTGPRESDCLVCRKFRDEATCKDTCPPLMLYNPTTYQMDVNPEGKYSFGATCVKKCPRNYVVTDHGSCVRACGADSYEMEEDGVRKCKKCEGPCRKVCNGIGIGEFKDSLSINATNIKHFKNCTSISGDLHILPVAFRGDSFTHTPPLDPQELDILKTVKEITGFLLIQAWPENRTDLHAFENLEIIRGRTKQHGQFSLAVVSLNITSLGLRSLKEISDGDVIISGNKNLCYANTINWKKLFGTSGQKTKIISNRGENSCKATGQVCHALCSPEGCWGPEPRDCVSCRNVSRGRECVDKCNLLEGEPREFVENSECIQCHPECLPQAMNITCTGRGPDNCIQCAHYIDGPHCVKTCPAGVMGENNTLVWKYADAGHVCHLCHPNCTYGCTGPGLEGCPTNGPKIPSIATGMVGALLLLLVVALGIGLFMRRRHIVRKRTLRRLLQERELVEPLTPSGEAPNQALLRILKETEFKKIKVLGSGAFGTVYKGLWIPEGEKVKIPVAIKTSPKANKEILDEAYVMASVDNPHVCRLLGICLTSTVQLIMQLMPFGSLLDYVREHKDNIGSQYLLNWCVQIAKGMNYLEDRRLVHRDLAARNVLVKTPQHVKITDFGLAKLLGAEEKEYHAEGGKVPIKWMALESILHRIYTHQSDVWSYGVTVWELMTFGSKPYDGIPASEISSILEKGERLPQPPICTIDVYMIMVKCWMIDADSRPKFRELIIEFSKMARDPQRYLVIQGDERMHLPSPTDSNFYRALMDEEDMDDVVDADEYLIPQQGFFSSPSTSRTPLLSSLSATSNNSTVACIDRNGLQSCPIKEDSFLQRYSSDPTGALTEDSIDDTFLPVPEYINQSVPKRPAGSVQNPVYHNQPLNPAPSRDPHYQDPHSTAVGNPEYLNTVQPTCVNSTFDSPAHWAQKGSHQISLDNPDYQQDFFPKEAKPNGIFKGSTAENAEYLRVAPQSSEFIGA
Sequence of EGFR Del19/C797S (P00533 with tags, fused parts or gaps DEL746-750/C797S): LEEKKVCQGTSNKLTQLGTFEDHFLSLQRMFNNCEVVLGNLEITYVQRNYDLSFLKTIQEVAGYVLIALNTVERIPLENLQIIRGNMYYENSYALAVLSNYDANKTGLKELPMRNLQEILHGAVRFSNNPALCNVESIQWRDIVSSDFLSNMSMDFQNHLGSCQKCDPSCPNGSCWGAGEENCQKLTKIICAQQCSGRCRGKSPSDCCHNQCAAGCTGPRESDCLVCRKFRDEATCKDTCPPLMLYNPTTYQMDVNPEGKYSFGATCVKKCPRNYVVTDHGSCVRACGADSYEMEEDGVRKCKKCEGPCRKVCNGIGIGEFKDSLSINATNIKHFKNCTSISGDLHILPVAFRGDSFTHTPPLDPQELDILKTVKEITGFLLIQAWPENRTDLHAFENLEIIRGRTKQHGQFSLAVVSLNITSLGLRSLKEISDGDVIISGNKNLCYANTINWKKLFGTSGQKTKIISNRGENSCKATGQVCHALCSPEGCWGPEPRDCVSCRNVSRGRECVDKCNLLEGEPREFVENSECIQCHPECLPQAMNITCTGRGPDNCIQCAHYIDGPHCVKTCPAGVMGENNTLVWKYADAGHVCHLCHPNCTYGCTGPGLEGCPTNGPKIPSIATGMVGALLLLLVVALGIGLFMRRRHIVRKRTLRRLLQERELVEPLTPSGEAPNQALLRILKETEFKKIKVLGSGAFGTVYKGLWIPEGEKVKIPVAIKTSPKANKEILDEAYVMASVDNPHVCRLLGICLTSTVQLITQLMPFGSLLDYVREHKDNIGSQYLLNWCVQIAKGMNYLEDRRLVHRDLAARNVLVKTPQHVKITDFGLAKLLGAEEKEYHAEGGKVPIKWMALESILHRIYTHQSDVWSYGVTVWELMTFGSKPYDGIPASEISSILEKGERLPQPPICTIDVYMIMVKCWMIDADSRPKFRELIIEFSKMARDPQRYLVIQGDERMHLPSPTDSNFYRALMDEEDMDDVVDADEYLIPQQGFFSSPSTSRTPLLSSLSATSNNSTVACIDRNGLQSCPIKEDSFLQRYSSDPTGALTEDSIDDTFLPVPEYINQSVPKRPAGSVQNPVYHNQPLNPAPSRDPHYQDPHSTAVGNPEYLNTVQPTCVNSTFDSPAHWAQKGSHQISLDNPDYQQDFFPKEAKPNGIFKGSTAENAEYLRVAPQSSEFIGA
Sequence of EGFR wildtype (WT) (P00533 25-1210): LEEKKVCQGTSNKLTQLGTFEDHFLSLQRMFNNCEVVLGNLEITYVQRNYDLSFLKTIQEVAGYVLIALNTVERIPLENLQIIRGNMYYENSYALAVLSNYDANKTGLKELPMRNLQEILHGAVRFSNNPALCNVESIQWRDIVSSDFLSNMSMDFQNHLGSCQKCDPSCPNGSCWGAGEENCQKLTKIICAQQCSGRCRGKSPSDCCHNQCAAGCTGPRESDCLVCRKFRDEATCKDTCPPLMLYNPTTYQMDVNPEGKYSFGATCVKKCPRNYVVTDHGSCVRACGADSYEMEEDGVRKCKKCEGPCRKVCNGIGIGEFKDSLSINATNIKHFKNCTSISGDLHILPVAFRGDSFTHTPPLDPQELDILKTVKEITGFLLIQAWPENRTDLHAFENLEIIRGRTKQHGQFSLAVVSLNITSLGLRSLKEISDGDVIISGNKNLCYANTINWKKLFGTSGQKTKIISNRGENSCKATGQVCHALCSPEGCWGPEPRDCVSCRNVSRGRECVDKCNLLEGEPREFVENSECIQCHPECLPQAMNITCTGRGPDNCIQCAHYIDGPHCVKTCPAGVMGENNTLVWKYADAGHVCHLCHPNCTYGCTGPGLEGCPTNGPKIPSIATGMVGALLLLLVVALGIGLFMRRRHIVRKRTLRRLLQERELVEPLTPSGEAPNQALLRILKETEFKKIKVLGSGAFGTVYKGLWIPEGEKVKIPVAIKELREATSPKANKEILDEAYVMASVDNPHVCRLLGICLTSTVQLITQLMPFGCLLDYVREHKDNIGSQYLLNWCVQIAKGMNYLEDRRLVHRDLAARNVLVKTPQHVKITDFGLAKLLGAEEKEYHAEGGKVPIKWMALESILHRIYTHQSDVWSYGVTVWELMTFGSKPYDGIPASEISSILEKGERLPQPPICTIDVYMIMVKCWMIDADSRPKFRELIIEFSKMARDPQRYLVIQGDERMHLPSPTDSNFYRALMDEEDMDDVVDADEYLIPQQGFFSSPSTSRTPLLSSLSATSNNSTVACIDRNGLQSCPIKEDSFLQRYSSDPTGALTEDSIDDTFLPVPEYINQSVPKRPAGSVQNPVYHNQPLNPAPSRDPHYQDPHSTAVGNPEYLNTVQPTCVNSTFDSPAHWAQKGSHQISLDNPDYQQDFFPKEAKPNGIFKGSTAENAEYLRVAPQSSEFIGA

Regarding `O=S(=O)(C1CC1)n1cc(-c2nccc(Nc3cc(N[C@H]4CC[C@](O)(CO)CC4)c(C#Cc4cnn(C(F)F)c4)cn3)n2)cn1` [Example 304, (1s,4s)-4-((2-((2-(1-(Cyclopropylsulfonyl)-1H-pyrazol-4-yl)pyrimidin-4-yl)amino)-5-((1-(difluoromethyl)-1H-pyrazol-4-yl)ethynyl)pyridin-4-yl)amino)-1-(hydroxymethyl)cyclohexan-1-ol], the IC50 in assay [1] (IC50 WT (nM), 100 μM ATP) was more than 10000 nM; in assay [2] (setting [6]), 2.7 nM; in assay [3] (setting [7]), 64 nM; in assay [4] (setting [8]), 103 nM; in assay [5] (setting [9]) it was 5.3 nM.
Take `CC1(CO)CCN(c2cc(Nc3ccnc(-c4cnn(S(=O)(=O)C5CC5)c4)n3)ncc2C#CC2CCN(S(=O)(=O)C3CC3)C2)CC1` (centres unmarked) [Example 395, (1-(2-((2-(1-(Cyclopropylsulfonyl)-1H-pyrazol-4-yl)pyrimidin-4-yl)amino)-5-((1-(cyclopropylsulfonyl)pyrrolidin-3-yl)ethynyl)pyridin-4-yl)-4-methylpiperidin-4-yl)methanol]: the IC50 in assay [1] (IC50 WT (nM), 100 μM ATP) came to 9220 nM; in assay [1] (setting [10]), 16.9 nM; in assay [2] (setting [6]) it was 0.7 nM; in assay [2] (setting [11]), 0.6 nM; in assay [3] (setting [7]) it was 8.3 nM; in assay [3] (setting [12]), 6.6 nM. For the same compound, the IC50 is 51.2 nM in assay [4] (setting [8]), 2.7 nM in assay [4] (setting [13]), 1.3 nM in assay [5] (setting [9]) and 0.3 nM in assay [5] (setting [14]).
As to `CC1(CO)CCN(c2cc(Nc3ccnc(-c4cnn(S(=O)(=O)C5CC5)c4)n3)ncc2C#Cc2cnn(C(F)(F)F)c2)CC1` [Example 101, (1-(2-((2-(1-(Cyclopropylsulfonyl)-1H-pyrazol-4-yl)pyrimidin-4-yl)amino)-5-((1-(trifluoromethyl)-1H-pyrazol-4-yl)ethynyl)pyridin-4-yl)-4-methylpiperidin-4-yl)methanol], the IC50 was more than 10000 nM in assay [1] (IC50 WT (nM), 100 μM ATP); 32 nM in assay [1] (setting [15]); 3.2 nM in assay [2] (setting [6]); 3.5 nM in assay [2] (setting [16]); 7.9 nM in assay [3] (setting [7]); 4.3 nM in assay [3] (setting [17]). The IC50 in assay [4] (setting [8]) was determined as 104 nM; in assay [4] (setting [18]), 3 nM; in assay [5] (setting [9]), 4.8 nM; in assay [5] (setting [19]) it was 2.4 nM.
As to `Cn1ccc(C#Cc2cnc(Nc3ccnc(-c4cnn(S(=O)(=O)C5CC5)c4)n3)cc2N[C@H]2CC[C@@H](O)CC2)n1` [Example 106, (1s,4s)-4-((2-((2-(1-(Cyclopropylsulfonyl)-1H-pyrazol-4-yl)pyrimidin-4-yl)amino)-5-((1-methyl-1H-pyrazol-3-yl)ethynyl)pyridin-4-yl)amino)cyclohexan-1-ol], the IC50 was more than 10000 nM in assay [1] (IC50 WT (nM), 100 μM ATP); 95.5 nM in assay [1] (setting [15]); 1.1 nM in assay [2] (setting [6]); 1 nM in assay [2] (setting [16]); 15.1 nM in assay [3] (setting [7]); 12.5 nM in assay [3] (setting [17]). Besides, the IC50 in assay [4] (setting [8]) stood at 274 nM; in assay [4] (setting [18]) it was 6.1 nM; in assay [5] (setting [9]), 1.6 nM; in assay [5] (setting [19]), 0.6 nM.
As for `CC1(CO)CCN(c2cc(Nc3ccnc(-c4cnn(S(=O)(=O)C5CC5)c4)n3)ncc2C#CC2CCCO2)CC1` (centres unmarked) [Example 378, (1-(2-((2-(1-(Cyclopropylsulfonyl)-1H-pyrazol-4-yl)pyrimidin-4-yl)amino)-5-((tetrahydrofuran-2-yl)ethynyl)pyridin-4-yl)-4-methylpiperidin-4-yl)methanol], the IC50 in assay [1] (IC50 WT (nM), 100 μM ATP) amounted to 2900 nM; in assay [1] (setting [10]), 3.9 nM; in assay [2] (setting [6]), 0.3 nM; in assay [2] (setting [11]) it was 0.1 nM; in assay [3] (setting [7]) it was 1 nM; in assay [3] (setting [12]), 0.5 nM. Further, the IC50 in assay [4] (setting [8]) was found to be 34 nM; in assay [4] (setting [13]), 1.3 nM; in assay [5] (setting [9]), 0.4 nM; in assay [5] (setting [14]), 0.1 nM.
As for `CN(C)CCC1CCCN(c2cc(Nc3ccnc(-c4cnn(S(=O)(=O)C5CC5)c4)n3)ncc2C#Cc2cnn(C)c2)C1` (centres unmarked) [Example 396, 2-(1-(Cyclopropylsulfonyl)-1H-pyrazol-4-yl)-N-(4-(3-(2-(dimethylamino)ethyl)piperidin-1-yl)-5-((1-methyl-1H-pyrazol-4-yl)ethynyl)pyridin-2-yl)pyrimidin-4-amine], the IC50 is 3390 nM in assay [1] (IC50 WT (nM), 100 μM ATP); 6.5 nM in assay [1] (setting [10]); 0.5 nM in assay [2] (setting [6]); 1 nM in assay [2] (setting [11]); 1 nM in assay [3] (setting [7]); 0.5 nM in assay [3] (setting [12]). Besides, the IC50 in assay [4] (setting [8]) was 12.2 nM; in assay [4] (setting [13]), 0.6 nM; in assay [5] (setting [9]), 0.7 nM; in assay [5] (setting [14]) it was 0.1 nM.
For `O=S(=O)(C1CC1)n1cc(-c2nccc(Nc3cc(N4CCC(O)CC4)c(C#Cc4ccc(N5CCOCC5)nc4)cn3)n2)cn1` [Example 215, 1-(2-((2-(1-(Cyclopropylsulfonyl)-1H-pyrazol-4-yl)pyrimidin-4-yl)amino)-5-((6-morpholinopyridin-3-yl)ethynyl)pyridin-4-yl)piperidin-4-ol], the IC50 was more than 10000 nM in assay [1] (IC50 WT (nM), 100 μM ATP); 2.9 nM in assay [2] (setting [6]); 46.9 nM in assay [3] (setting [7]); 213 nM in assay [4] (setting [8]); 11.4 nM in assay [5] (setting [9]).
`CC1(CO)CCN(c2cc(Nc3ccnc(-c4cnn(S(=O)(=O)C5CC5)c4)n3)ncc2C#Cc2ccncc2)CC1` [Example 258, (1-(2-((2-(1-(Cyclopropylsulfonyl)-1H-pyrazol-4-yl)pyrimidin-4-yl)amino)-5-(pyridin-4-ylethynyl)pyridin-4-yl)-4-methylpiperidin-4-yl)methanol]: the IC50 in assay [1] (setting [20]) stood at 5 nM; in assay [1] (IC50 WT (nM), 100 μM ATP), 5310 nM; in assay [2] (setting [21]), 0.3 nM; in assay [2] (setting [6]) it was 0.5 nM; in assay [3] (setting [22]), 0.7 nM; in assay [3] (setting [7]) it was 0.5 nM. Moreover, the IC50 in assay [4] (setting [23]) is 1.8 nM; in assay [4] (setting [8]), 7.7 nM; in assay [5] (setting [24]), 0.1 nM; in assay [5] (setting [9]) it was 0.5 nM.
As for `Cn1cc(C#Cc2cnc(Nc3ccnc(-c4cnn(S(=O)(=O)C5CC5)c4)n3)cc2N2CCC(=O)CC2)cn1` [Example 7, 1-(2-((2-(1-(Cyclopropylsulfonyl)-1H-pyrazol-4-yl)pyrimidin-4-yl)amino)-5-((1-methyl-1H-pyrazol-4-yl)ethynyl)pyridin-4-yl)piperidin-4-one], the IC50 in assay [1] (IC50 WT (nM), 100 μM ATP) is more than 10000 nM; in assay [2] (setting [6]) it was 4.5 nM; in assay [3] (setting [7]) it was 24.2 nM; in assay [4] (setting [8]) it was 143 nM; in assay [5] (setting [9]), 5 nM.
Turning to `Cc1nn(S(=O)(=O)N(C)C)cc1-c1nccc(Nc2cc(N3CCC(C)(CO)CC3)c(C#Cc3cnn(C(F)(F)F)c3)cn2)n1` [Example 272, 4-(4-((4-(4-(Hydroxymethyl)-4-methylpiperidin-1-yl)-5-((1-(trifluoromethyl)-1H-pyrazol-4-yl)ethynyl)pyridin-2-yl)amino)pyrimidin-2-yl)-N, N,3-trimethyl-1H-pyrazole-1-sulfonamide], the IC50 in assay [1] (setting [20]) is 108 nM; in assay [1] (IC50 WT (nM), 100 μM ATP) it was more than 10000 nM; in assay [2] (setting [21]), 4 nM; in assay [2] (setting [6]), 7.1 nM; in assay [3] (setting [22]), 51.2 nM; in assay [3] (setting [7]), 81.9 nM. The IC50 in assay [4] (setting [23]) was found to be 18.9 nM; in assay [4] (setting [8]) it was 2120 nM; in assay [5] (setting [24]), 2.2 nM; in assay [5] (setting [9]), 3.1 nM.
`Cn1cc(C#Cc2cnc(Nc3ccnc(-c4cnn(S(=O)(=O)C5CC5)c4)n3)cc2N2CCC(NCC3CC3)CC2)cn1` [Example 124, N-(4-(4-((Cyclopropylmethyl)amino)piperidin-1-yl)-5-((1-methyl-1H-pyrazol-4-yl)ethynyl)pyridin-2-yl)-2-(1-(cyclopropylsulfonyl)-1H-pyrazol-4-yl)pyrimidin-4-amine]: the IC50 in assay [1] (IC50 WT (nM), 100 μM ATP) is more than 10000 nM; in assay [2] (setting [6]), 3 nM; in assay [3] (setting [7]), 26.3 nM; in assay [4] (setting [8]) it was 154 nM; in assay [5] (setting [9]), 2.6 nM.
In the case of `CN1CCC2(CC1)CCN(c1cc(Nc3ccnc(-c4cnn(S(=O)(=O)C5CC5)c4)n3)ncc1C#Cc1cnn(CC(F)F)c1)CC2` [Example 322, 2-(1-(Cyclopropylsulfonyl)-1H-pyrazol-4-yl)-N-(5-((1-(2,2-difluoroethyl)-1H-pyrazol-4-yl)ethynyl)-4-(9-methyl-3,9-diazaspiro[5.5]undecan-3-yl)pyridin-2-yl)pyrimidin-4-amine], the IC50 in assay [1] (IC50 WT (nM), 100 μM ATP) was determined as 4540 nM; in assay [2] (setting [6]), 0.5 nM; in assay [3] (setting [7]) it was 6 nM; in assay [4] (setting [8]), 18 nM; in assay [5] (setting [9]), 0.4 nM.
